Tested on: HSSY-II tumor spheroid viability
Assay: Anticancer human tumor HSSY-II cell line growth inhibition;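 note: spheroids exposed to compounds for seven days before reading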;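 for viability, T/C: percent of DMSO vehicle control viability so 100% = untreated level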
Settings: spheroids with HUVEC and MSC; for IC50: curve of first compound; for viability, T/C: stronger effect = lower value; active = viability on the fitted dose curve at most 10% of control; inactive = the rest
Excerpt: Multicellular complex tumor spheroid response to DNA repair inhibitors in combination with DNA-damaging drugs
This study explores the anticancer activities of DNA-damaging drugs and inhibitors of DNA damage repair, both as single agents and in combinations. Complex tumor spheroids comprised of malignant cells, endothelial cells and mesenchymal stem cells served as an in vitro model for human solid tumors. This model system incorporates physiologically relevant features and patient-derived or established malignant cell lines with clinically relevant genetic alterations from many tumor types. Twenty-six patient-derived or established malignant cell lines were evaluated representing sarcoma, melanoma, small cell lung cancer (SCLC), non-small cell lung cancer (NSCLC), as well as bladder, ovarian and pancreatic cancers. The concentration ranges selected for each drug and investigational agent were based upon clinically achievable concentrations if the clinical Cmax of the agent was known.
Compounds. The drugs and compounds olaparib (NSC753686), talazoparib (NSC767125), berzosertib (NSC777718), elimusertib (NSC800525), nedisertib (NSC802822), VX-984 (NSC792969), AZD-1390 (NSC803789), temozolomide (NSC362856), topotecan (NSC609699), trabectedin (NSC813783), staurosporine (NSC755774), and gemcitabine (NSC613327) were obtained from the National Cancer Institute (NCI) Developmental Therapeutics Program Chemical Repository. The FDA-approved anticancer drug set is available from the Developmental Therapeutics Program at https://dtp.cancer.gov/organization/dscb/obtaining/available_plates.htm. […] The stock solutions were prepared in dimethyl sulfoxide (DMSO, Sigma-Aldrich, St. Louis, MO, cat. D2650) at 400-fold the tested concentration and stored at -70 degrees C. Prior to their use, the stock solutions were diluted in fresh medium and the final DMSO concentration in the assay was 0.25% (v/v). All drugs and investigational agents were tested over a range starting from a high concentration at or near the clinical Cmax and decreasing in half-log increments. If the clinical Cmax for an agent had not been determined, the highest concentration tested was 10 microM.
Cell Lines. The patient-derived cancer cell (PDC) lines: 156681-154-R-J1-PDC, 283228-195-R-J1-PDC, 287954-098-R-J1-PDC, 292921-168-R-J2-PDC, 349418-098-R-PDC, 425362-245-T-J1-PDC, 556581-035-R-J1-PDC, and BL0293-F563-PDC were received from the NCI Patient-Derived Models Repository (PDMR, https://pdmr.cancer.gov). The established cell lines HS-SY-2 (RRID:CVCL_8719), MPNST, and SYO-1 (RRID:CVCL_7146) were obtained from the Sloan Kettering Institute. The alveolar soft parts sarcoma cell line ASPS-1 (RRID:CVCL_S738) was established at the NCI and grown from internal seed stocks. The following established cell lines were purchased from the American Type Culture Collection (ATCC, Manassas, VA): G-401 (ATCC, cat. CRL-1441, RRID:CVCL_0270), SW982 (ATCC, cat. HTB-93, RRID:CVCL_1734), VA-ES-BJ (ATCC, cat. CRL-2138, RRID:CVCL_1785), NCI-H719 (ATCC, cat. CRL-5837, RRID:CVCL_1582), NCI-H196 (ATCC, cat. CRL-5823, RRID:CVCL_1509), NCI-H841 (ATCC, cat. CRL-5845, RRID:CVCL_1595), NCI-H1618 (ATCC, cat. CRL-5879, RRID:CVCL_1480), NCI-H1876 (ATCC, cat. CRL-5902, RRID:CVCL_1503), DMS 114 (ATCC, cat. CRL-2066; RRID:CVCL_1174), NCI-H211 (ATCC, cat. CRL-5824; RRID:CVCL_1529), and SW 1271 (ATCC, cat. CRL-2177, RRID:CVCL_1716). The small cell lung cancer cell line COR-L88 was purchased from Sigma-Aldrich (cat. 92031917-1VL, RRID:CVCL_1141). The non-small cell lung cancer cell lines NCI-H226 (RRID:CVCL_1544) and NCI-H322M (RRID:CVCL_1557) were established at the NCI and grown from internal seed stocks. Pooled donor human umbilical vein endothelial cells (HUVEC, Lonza, cat. CC-2519) and human mesenchymal stem cells (hMSC, Lonza, cat. PT-2501) were purchased from Lonza (Walkersville, MD).
Cell Culture. All cells were maintained in an incubator at 37 degrees C and 5% CO2 with 95% humidity. […]

Cn1ncnc1[C@H]1c2n[nH]c(=O)c3cc(F)cc(c23)N[C@@H]1c1ccc(F)cc1 + CC[C@@]1(O)C(=O)OCc2c1cc1n(c2=O)Cc2cc3c(CN(C)C)c(O)ccc3nc2-1
inactive: viability, T/C (second compound 0.003 µM, first compound 0.00949 µM) 29.2% | viability, T/C (second compound 0.003 µM, first compound 0.03 µM) 16.7%
< 9.49 nM: IC50 (second compound 0.003 µM) | IC50 (second compound 0.00949 µM) | IC50 (second compound 0.03 µM) | IC50 (second compound 0.0949 µM) | IC50 (second compound 0.3 µM)
active: viability, T/C (second compound 0.003 µM, first compound 0.0949 µM) 9.97% | viability, T/C (second compound 0.003 µM, first compound 0.3 µM) 6.78% | viability, T/C (second compound 0.003 µM, first compound 0.949 µM) 5.19% | viability, T/C (second compound 0.003 µM, first compound 3 µM) 4.32% | viability, T/C (second compound 0.00949 µM, first compound 0.00949 µM) 7.72% | viability, T/C (second compound 0.00949 µM, first compound 0.03 µM) 5.97% | viability, T/C (second compound 0.00949 µM, first compound 0.0949 µM) 5.6% | viability, T/C (second compound 0.00949 µM, first compound 0.3 µM) 5.88% | viability, T/C (second compound 0.00949 µM, first compound 0.949 µM) 5.84% | viability, T/C (second compound 0.00949 µM, first compound 3 µM) 3.69% | viability, T/C (second compound 0.03 µM, first compound 0.00949 µM) 5.64% | viability, T/C (second compound 0.03 µM, first compound 0.03 µM) 5.6% | viability, T/C (second compound 0.03 µM, first compound 0.0949 µM) 5.25% | viability, T/C (second compound 0.03 µM, first compound 0.3 µM) 5.52% | viability, T/C (second compound 0.03 µM, first compound 0.949 µM) 4.93% | viability, T/C (second compound 0.03 µM, first compound 3 µM) 3.48% | viability, T/C (second compound 0.0949 µM, first compound 0.00949 µM) 4.26% | viability, T/C (second compound 0.0949 µM, first compound 0.03 µM) 4.04% | viability, T/C (second compound 0.0949 µM, first compound 0.0949 µM) 3.48% | viability, T/C (second compound 0.0949 µM, first compound 0.3 µM) 3.91% | viability, T/C (second compound 0.0949 µM, first compound 0.949 µM) 3.43% | viability, T/C (second compound 0.0949 µM, first compound 3 µM) 2.72% | viability, T/C (second compound 0.3 µM, first compound 0.00949 µM) 3.45% | viability, T/C (second compound 0.3 µM, first compound 0.03 µM) 4.01% | viability, T/C (second compound 0.3 µM, first compound 0.0949 µM) 3.37% | viability, T/C (second compound 0.3 µM, first compound 0.3 µM) 3.5% | viability, T/C (second compound 0.3 µM, first compound 0.949 µM) 2.94% | viability, T/C (second compound 0.3 µM, first compound 3 µM) 2.13%

Source: PubChem BioAssay AID1845204 (Molecular Pharmacology Branch, DTP, NCI, 2023)
